Columns and labels:
NF-AT [1] = assay: In vitro transcription directed by multimerized NF-AT binding sites (G-less) by nuclear extracts of treated Jurkat cells; assay type: cell-based, human; settings: nuclear extracts of stimulated/FK506-treated cells, 10 ng/ml
Procedure: The effect of FK506 on the ability of NF-AT to direct transcription was tested by preparing nuclear extracts from stimulated or stimulated/FK506-treated cells and testing their ability to transcribe a G-less cassette in which transcription was dependent upon three NF-AT sites located within a synthetic promoter.
Promoter constructs, nuclear extracts and transcription reactions were prepared as described. NFATZ Jurkat cells, derived from a human T cell leukemia, were stimulated with […] PMA (Sigma), 2 μM ionomycin (Calbiochem) for 2 hours. FK506 was used at 10 ng/ml and added five minutes prior to the addition of PMA and ionomycin. […] Transcription was quantitated using a radioanalytic imaging system (AMBIS). […]
In general, transcription reactions (20 μl) contained 40 μg/ml of circular DNA template [400 ng of the test construct, 40 ng of the AdMLP G-less construct, and 360 ng of poly dI-dC (Pharmacia)] and between 3-5 mg/ml nuclear protein extract in a buffer containing 25 mM Hepes (pH 7.6), 50 mM KCl, 6 mM MgCl2, 0.6 mM each of ATP and CTP, 7 μM UTP, 7 μCi [a-^32P] […] The pellets were rinsed with 70% ethanol, air dried, and resuspended in 10 μl of loading dye (90% formamide, 0.01% xylene cyanol, and 0.01% bromophenol blue in 1×TBE.) The transcripts were analyzed on 6% denaturing polyacrylamide gels. […]

[2] = test system: NFATZ Jurkat cells and JK12/90.1 cells; assay: Toxic effects on the stimulated cells; assay type: cell-based; settings: FK506 100 ng/ml or CsA 500 ng/ml, five minutes prior to PMA and ionomycin, 2 hours
[3] = test system: nuclear component of NF-AT; assay: Reconstitution of NF-AT binding: synthesis of the nuclear component; assay type: cell-based, human; settings: PMA/ionomycin-stimulated cells
Procedure: (§1) NFATZ Jurkat cells and JK12/90.1 cells (a gift from N. Shastri) were stimulated for 2 hours with 20 ng/ml PMA and 2 μM ionomycin. […] Nuclear extracts were prepared as described previously with modifications. Cytoplasmic extracts were made from the same cells as the nuclear extracts. Following lysis of the cells with buffer A [10 mM Hepes (pH 7.8), 15 mM Kcl, 2 mM MgCl2, 1 mM DTT, 0.1 mM EDTA, 0.1 mM PMSF] plus 0.05% NP-40, and pelleting of the nuclei, the cytoplasmic fraction was removed and stabilized with 10% (vol/vol) glycerol and 1/10 volume of buffer B [0.3 M Hepes (pH 7.8), 1.4 M Kcl, and 30 mM MgCl2]. The cytoplasmic extract was centrifuged at 200,000 g for 15 minutes. An equal volume of 3 M (NH4)2SO4 (pH 7.9) was added to the supernatant, and precipitated proteins were pelleted at 100,000 g for 10 minutes. The pelleted cytoplasmic proteins were resuspended in buffer C [50 mM Hepes (pH 7.8), 50 mM KCl, 1 mM DTT, 0.1 mM EDTA, 0.1 mM PMSF, 10% (vol/vol) glycerol] and desalted by passage over a P6DG column (BioRad). Protein concentrations were determined using a BioRad protein assay kit. To assess the completeness of the nuclear and cytoplasmic fractionation, we assayed for Oct-1 (a constitutive nuclear located DNA binding protein) binding activity and β-galactosidase (cytoplasmic localized) enzyme activity. […]

NF-AT [4] = assay: Gel mobility shift assay of NF-AT DNA binding activity in extracts of treated Jurkat cells; assay type: cell-based, human
Procedure: Nuclear extracts were made according to the procedures of Ohlsson and Edlund (Cell 45:35 (1986)). Briefly, nuclei were extracted with 0.3 M (NH4)2SO4 and the fraction that contained the nuclear proteins was precipitated with 0.2 g/ml (NH4)2SO4 and dialyzed for 4 h. at 4° C. The NF-AT binding site of the IL-2 enhancer (−290 and −263) was used as a probe for binding activity. The binding experiment was carried out essentially as described in Shaw, J. P. Science 241:202-205 (1988)).
NFATZ Jurkat cells were pretreated with 100 μM anisoymycin (Sigma), a protein synthesis inhibitor, for 30 minutes before stimulating the cells. Conditions for activating the cells and preparing nuclear and cytoplasmic extracts are described in Example 3.
as §1

NF-ATc = assay: Western blot mobility of epitope tagged NF-ATc expressed in Jurkat cells; assay type: cell-based, human; settings: stimulated 2 hrs, whole cell lysates
Procedure: Whole cell lysates were analyzed by western blotting as in FIG. 13.
The cDNA shown in FIG. 12 was fused to the Hemophilus influenza hemaglutinin (HA) 12 amino acid epitope tag in the determined reading frame and operably linked to the SRα promoter in the vector pBJ5 (Lin et al, 1990, Science 249:677-679). The resultant construct was transiently transfected by electroporation into Jurkat human T lymphocytes, and into Cos fibroblast cells. Expression of the epitope-tagged NF-ATc protein was determined by Western blotting of whole cell extracts prepared from the transfected cells, using an antibody (12CA5, Berkeley Antibody Co., CA) that detects the HA epitope.
Post-translational modification of NF-ATc was investigated in cells treated with agents that activate PKC or increase intracellular Ca++. […] Whole cell lysates were analyzed by western blotting as in FIG. 13. […] This is consistent with a dephosphorylation event, possibly by direct action of calcineurin (Clipstone and Crabtree (1992) Nature 357: 695-697), however, any of a large number of processes could produce the observed mobility changes. There is evidence that NF-ATp is a substrate for calcineurin, however, the mobility shifts produced by phosphatase treatment of NF-ATp or NF-ATc are far greater than those observed in FIG. 19. These observations indicate that NF-ATc is not a direct substrate of calcineurin.

IL-2 promoter = assay: IL-2 enhancer/promoter luciferase reporter co-transfected with NF-ATc expression vector in Cos cells; assay type: cell-based; settings: overexpression in Cos cells
Procedure: (§2) The NF-ATc cDNA was operably linked to a portion of the SV40 early gene promoter and the mV transcription regulatory regions in the pBJ vector. This expression vector was co-tranfected into Jurkat and Cos cells with either a) three copies of NF-AT binding site linked to and directing transcription of luciferase (results shown in FIGS. 14A and 14B) the entire IL-2 enhancer/promoter directing transcription of luciferase (results shown in FIG. 14B). Cytosolic extracts were prepared and luciferase assays carried out by standard procedures (de Wet et al, 1987, Mol. Cell. Biol. 7:724-[…]).

NF-AT binding site = assay: NF-AT luciferase reporter co-transfected with NF-ATc expression vector in Cos and Jurkat cells; assay type: cell-based; settings: overexpression in Cos cells and Jurkat cells
Procedure: as §2

C=CC[C@@H]1/C=C(\C)C[C@H](C)C[C@H](OC)[C@H]2O[C@@](O)(C(=O)C(=O)N3CCCC[C@H]3C(=O)O[C@H](/C(C)=C/[C@@H]3CC[C@@H](O)[C@H](OC)C3)[C@H](C)[C@@H](O)CC1=O)[C@H](C)C[C@@H]2OC [FK506]
reduction of in vitro transcription directed by multimerized NF-AT binding sites (NF-AT [1]): 2.5 fold
toxic effects to the cells [2]: without any toxic effects
synthesis of the nuclear component of NF-AT [3]: did not inhibit
reduction of NF-AT DNA-binding activity in the extracts (NF-AT [4]; nuclear extracts of stimulated/FK506-treated cells, 10 ng/ml): 50 to 80%

C[C@H](CCC(=O)O)C[C@H](C)C[C@H](C)C(=O)/C=C(\O)[C@H](C)C[C@H](C)C/C=C/[C@@H](C)[C@@H](O)[C@@H](C)[C@@H](O)C[C@@H]1CC[C@@](C)([C@H]2CC[C@@](C)([C@@H](C)O)O2)O1 [ionomycin]
mobility of NF-ATc versus non-treated cells (NF-ATc): migrates faster

CCCCCCCCCCCCCC(=O)O[C@@H]1[C@@H](C)[C@@]2(O)[C@@H](C=C(CO)C[C@]3(O)C(=O)C(C)=C[C@@H]23)[C@@H]2C(C)(C)[C@]12OC(C)=O [PMA, phorbol myristate acetate]
mobility of NF-ATc versus non-treated cells (NF-ATc): slower migrating

COc1ccc(C[C@H]2NC[C@H](O)[C@H]2OC(C)=O)cc1 [anisomycin]
appearance of the NF-AT complex in activated T cells (NF-AT [4]; NFATZ Jurkat cells pretreated with 100 μM for 30 minutes before stimulation): completely blocked
ability of cytoplasmic extracts from treated cells to reconstitute the NF-AT complex (NF-AT [4]; cytoplasmic extracts of cells grown with 100 μM protein synthesis inhibitor): able to reconstitute

B1: NF-ATc: human cytosolic NF-AT subunit, protein of 716 amino acids (SEQ ID NO: 38), expressed from cDNA (protein)
chain: MPSTSFPVPSKFPLGPAAAVFGRGETLGPAPRAGGTMKSAEEEHYGYASSNVSPALPLPTAHSTLPAPCHNLQTSTPGIIPPADHPSGYGAALDGCPAGYFLSSGHTRPDGAPALESPRIEITSCLGLYHNNNQFFHDVEVEDVLPSSKRSPSTATLSLPSLEAYRDPSCLSPASSLSSRSCNSEASSYESNYSYPYASPQTSPWQSPCVSPKTTDPEEGFPRGLGACTLLGSPQHSPSTSPRASVTEESWLGARSSRPASPCNKRKYSLNGRQPPYSPHHSPTPSPHGSPRVSVTDDSWLGNTTQYTSSAIVAAINALTTDSSLDLGDGVPVKSRKTTLEQPPSVALKVEPVGEDLGSPPPPADFAPEDYSSFQHIRKGGFCDQYLAVPQHPYQWAKPKPLSPTSYMSPTLPALDWQLPSHSGPYELRIEVQPKSHHRAHYETEGSRGAVKASAGGHPIVQLHGYLENEPLMLQLFIGTADDRLLRPHAFYQVHRITGKTVSTTSHEAILSNTKVLEIPLLPENSMRAVIDCACILKLRNSDIELRKGETDIGRKNTRVRLVFRVHVPQPSGRTLSLQVASNPIECSQRSAQELPLVEKQSTDSYPVVGGKKMVLSGHNFLQDSKVIFVEKAPDGHHVWEMEAKTDRDLCKPNSLVVEIPPFRNQRITSPVHVSFYVCNGKRKRSQYQRFTYLPANGNAIFLTVSREHERVGCFF
modifications: human
activation of the IL-2 promoter (IL-2 promoter): activates
enhancement of NF-AT-dependent transcription (NF-AT binding site): 50-1000 fold
